Blank lines part the entries; values can stand above or below the molecule they belong to.
Columns and labels:
Test in all cases: radiometric filter-binding kinase assay
[1] = tested on: AKT2 (human), P31751 [S474D]
BRSK2 (human) = BRSK2 (human) (UniProt Q8IWQ3)
CAMKK2 (human) = CAMKK2 (human) (UniProt Q96RR4)
CLK2 (human) = CLK2 (human) (UniProt P49760)
CSK (human) = CSK (human) (UniProt P41240)
DAPK1 (human) = DAPK1 (human) (UniProt P53355)
EPHA4 (human) = EPHA4 (human) (UniProt P54764)
EPHB1 (human) = EPHB1 (human) (UniProt P54762)
EPHB3 (human) = EPHB3 (human) (UniProt P54753)
EPHB4 (human) = EPHB4 (human) (UniProt P54760)
GSK3B (human) = GSK3B (human) (UniProt P49841)
HIPK1 (human) = HIPK1 (human) (UniProt Q86Z02)
HIPK2 (human) = HIPK2 (human) (UniProt Q9H2X6)
HIPK3 (human) = HIPK3 (human) (UniProt Q9H422)
IGF1R (human) = IGF1R (human) (UniProt P08069)
INSR (human) = INSR (human) (UniProt P06213)
LCK (mouse) = conditions: accession and sequence are those of the human protein
MAP3K1 (human) = MAP3K1 (human) (UniProt Q13233)
MAP3K5 (human) = MAP3K5 (human) (UniProt Q99683)
MAP3K7 TAB1 (human) = MAP3K7 TAB1 (human) (UniProt Q15750+O43318)
MAP3K9 (human) = MAP3K9 (human) (UniProt P80192)
MAPK1 (human) = MAPK1 (human) (UniProt P28482)
MAPK11 (human) = MAPK11 (human) (UniProt Q15759)
MAPK13 (human) = MAPK13 (human) (UniProt O15264)
MARK4 (human) = MARK4 (human) (UniProt Q96L34)
PAK6 (human) = PAK6 (human) (UniProt Q9NQU5)
PAK7 (human) = PAK7 (human) (UniProt Q9P286)
PKN2 (human) = PKN2 (human) (UniProt Q16513)
PLK1 (human) = PLK1 (human) (UniProt P53350)
PRKAA1 or PRKAA2 (rat) = conditions: accession and sequence are those of the human protein
PRKCZ (human) = PRKCZ (human) (UniProt Q05513)
ROCK2 (rat) = conditions: accession and sequence are those of the human protein
RPS6KA5 KD1 KD2 (human) = RPS6KA5 KD1 KD2 (human) (UniProt O75582)
SRC (human) = SRC (human) (UniProt P12931)
SYK (human) = SYK (human) (UniProt P43405)
YES1 (human) = YES1 (human) (UniProt P07947)

Chain of BRSK2 (human) (Q8IWQ3 whole entry, looked up): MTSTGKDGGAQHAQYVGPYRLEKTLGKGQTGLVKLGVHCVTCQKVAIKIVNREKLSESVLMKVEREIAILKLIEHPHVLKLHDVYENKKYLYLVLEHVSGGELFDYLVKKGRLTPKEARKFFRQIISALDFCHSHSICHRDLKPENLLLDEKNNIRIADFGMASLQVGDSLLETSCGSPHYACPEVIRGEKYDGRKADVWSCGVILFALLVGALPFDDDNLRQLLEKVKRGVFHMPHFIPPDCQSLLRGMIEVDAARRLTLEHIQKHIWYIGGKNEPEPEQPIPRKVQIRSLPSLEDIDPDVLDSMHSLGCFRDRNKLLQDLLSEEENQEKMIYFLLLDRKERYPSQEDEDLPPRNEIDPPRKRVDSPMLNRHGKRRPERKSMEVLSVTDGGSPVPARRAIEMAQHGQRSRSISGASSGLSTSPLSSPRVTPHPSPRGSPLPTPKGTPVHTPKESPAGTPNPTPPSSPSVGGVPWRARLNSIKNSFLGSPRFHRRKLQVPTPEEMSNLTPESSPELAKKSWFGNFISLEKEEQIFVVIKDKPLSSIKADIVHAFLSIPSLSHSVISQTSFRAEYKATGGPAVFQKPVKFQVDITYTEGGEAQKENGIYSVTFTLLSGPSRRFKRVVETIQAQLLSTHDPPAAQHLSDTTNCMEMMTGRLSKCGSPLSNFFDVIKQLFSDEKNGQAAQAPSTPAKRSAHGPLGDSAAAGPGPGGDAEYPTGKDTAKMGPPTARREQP
Chain of MAPK11 (human) (Q15759 whole entry, looked up): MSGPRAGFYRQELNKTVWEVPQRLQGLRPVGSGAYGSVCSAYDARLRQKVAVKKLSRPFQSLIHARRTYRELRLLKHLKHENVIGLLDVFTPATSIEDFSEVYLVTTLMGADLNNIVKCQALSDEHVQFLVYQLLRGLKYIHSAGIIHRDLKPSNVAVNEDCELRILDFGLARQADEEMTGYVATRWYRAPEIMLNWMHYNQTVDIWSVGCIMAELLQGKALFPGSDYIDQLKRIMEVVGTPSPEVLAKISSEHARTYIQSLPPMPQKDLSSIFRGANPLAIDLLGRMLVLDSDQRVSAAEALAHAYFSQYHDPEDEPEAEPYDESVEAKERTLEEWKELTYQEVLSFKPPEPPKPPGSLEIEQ
Chain of DAPK1 (human) (P53355 whole entry, looked up): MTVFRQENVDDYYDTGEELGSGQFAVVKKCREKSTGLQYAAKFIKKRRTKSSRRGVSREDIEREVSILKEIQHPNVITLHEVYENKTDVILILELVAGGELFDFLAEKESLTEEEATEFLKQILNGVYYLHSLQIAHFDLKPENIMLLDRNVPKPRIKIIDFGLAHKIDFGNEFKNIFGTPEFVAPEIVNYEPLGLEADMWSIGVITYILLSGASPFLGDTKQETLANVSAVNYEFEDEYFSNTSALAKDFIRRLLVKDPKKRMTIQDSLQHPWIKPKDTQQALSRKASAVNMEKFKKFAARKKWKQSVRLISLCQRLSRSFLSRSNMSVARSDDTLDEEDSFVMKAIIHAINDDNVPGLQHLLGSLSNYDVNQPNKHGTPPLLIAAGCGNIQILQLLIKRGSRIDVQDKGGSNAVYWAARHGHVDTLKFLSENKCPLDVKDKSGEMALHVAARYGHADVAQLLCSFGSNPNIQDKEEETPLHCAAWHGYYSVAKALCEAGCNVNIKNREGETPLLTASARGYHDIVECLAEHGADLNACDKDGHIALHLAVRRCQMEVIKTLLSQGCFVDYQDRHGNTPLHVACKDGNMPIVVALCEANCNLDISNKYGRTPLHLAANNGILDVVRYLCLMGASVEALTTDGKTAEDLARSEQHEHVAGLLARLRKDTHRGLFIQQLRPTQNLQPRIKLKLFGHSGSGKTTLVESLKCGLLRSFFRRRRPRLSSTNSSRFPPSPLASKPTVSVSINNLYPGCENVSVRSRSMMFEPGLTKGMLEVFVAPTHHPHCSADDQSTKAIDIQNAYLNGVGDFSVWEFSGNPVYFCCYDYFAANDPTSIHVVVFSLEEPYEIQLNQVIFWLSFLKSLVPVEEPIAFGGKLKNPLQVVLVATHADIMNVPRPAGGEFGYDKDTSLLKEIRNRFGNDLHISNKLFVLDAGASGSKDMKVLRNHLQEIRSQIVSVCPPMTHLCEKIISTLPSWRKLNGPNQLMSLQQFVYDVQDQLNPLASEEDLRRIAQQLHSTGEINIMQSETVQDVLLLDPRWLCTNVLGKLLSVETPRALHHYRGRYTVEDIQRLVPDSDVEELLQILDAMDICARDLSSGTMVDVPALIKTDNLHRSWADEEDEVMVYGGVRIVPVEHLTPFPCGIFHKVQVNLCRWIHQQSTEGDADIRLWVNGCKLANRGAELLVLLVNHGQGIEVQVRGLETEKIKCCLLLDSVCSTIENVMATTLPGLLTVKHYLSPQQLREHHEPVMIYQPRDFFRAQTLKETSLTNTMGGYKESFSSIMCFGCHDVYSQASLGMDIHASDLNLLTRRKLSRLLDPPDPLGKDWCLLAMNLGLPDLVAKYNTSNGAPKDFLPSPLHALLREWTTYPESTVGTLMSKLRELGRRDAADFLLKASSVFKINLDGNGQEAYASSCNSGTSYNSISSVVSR
Chain of HIPK1 (human) (Q86Z02 whole entry, looked up): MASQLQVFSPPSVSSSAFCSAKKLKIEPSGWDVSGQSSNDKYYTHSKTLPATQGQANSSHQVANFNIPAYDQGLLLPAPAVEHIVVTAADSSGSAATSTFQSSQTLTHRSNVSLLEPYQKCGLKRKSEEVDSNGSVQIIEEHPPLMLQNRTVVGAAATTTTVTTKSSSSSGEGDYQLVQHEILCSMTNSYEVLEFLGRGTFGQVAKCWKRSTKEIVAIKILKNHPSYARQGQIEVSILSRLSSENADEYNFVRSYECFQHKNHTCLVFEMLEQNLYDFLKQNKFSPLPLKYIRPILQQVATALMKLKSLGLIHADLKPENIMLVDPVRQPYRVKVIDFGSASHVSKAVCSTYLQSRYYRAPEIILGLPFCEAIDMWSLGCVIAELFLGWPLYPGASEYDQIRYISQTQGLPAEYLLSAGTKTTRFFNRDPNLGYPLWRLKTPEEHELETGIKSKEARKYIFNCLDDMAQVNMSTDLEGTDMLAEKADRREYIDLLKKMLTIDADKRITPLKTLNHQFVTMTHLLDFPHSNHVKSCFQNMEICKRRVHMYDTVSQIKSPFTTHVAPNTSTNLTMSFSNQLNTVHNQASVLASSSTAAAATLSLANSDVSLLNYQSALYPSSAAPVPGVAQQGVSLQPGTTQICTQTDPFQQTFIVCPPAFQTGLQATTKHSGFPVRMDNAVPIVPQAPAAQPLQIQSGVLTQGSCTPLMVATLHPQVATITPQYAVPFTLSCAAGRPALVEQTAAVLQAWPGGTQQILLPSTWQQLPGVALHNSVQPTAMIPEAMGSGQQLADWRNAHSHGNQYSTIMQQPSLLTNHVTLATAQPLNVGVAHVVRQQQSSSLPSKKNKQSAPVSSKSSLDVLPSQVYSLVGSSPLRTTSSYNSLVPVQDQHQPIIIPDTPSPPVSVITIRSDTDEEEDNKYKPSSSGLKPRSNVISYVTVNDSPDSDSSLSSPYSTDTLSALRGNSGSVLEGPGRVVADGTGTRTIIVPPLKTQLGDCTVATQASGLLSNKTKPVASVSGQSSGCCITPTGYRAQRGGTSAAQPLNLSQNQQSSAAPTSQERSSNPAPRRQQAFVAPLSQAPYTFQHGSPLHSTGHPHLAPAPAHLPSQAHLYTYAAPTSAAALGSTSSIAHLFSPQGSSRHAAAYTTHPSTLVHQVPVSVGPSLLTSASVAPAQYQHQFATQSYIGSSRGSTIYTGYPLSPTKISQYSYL
Chain of GSK3B (human) (P49841 whole entry, looked up): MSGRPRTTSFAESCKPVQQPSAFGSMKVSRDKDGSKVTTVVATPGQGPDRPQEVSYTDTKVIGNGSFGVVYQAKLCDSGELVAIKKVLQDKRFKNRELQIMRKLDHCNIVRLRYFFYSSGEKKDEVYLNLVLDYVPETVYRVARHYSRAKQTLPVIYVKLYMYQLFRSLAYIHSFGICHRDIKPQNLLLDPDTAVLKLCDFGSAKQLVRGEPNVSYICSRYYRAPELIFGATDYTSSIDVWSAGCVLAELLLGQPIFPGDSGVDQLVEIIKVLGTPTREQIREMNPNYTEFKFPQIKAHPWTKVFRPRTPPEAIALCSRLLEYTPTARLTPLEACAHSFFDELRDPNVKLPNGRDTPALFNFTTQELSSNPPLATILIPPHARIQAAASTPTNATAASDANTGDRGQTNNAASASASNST
Chain of PAK6 (human) (Q9NQU5 whole entry, looked up): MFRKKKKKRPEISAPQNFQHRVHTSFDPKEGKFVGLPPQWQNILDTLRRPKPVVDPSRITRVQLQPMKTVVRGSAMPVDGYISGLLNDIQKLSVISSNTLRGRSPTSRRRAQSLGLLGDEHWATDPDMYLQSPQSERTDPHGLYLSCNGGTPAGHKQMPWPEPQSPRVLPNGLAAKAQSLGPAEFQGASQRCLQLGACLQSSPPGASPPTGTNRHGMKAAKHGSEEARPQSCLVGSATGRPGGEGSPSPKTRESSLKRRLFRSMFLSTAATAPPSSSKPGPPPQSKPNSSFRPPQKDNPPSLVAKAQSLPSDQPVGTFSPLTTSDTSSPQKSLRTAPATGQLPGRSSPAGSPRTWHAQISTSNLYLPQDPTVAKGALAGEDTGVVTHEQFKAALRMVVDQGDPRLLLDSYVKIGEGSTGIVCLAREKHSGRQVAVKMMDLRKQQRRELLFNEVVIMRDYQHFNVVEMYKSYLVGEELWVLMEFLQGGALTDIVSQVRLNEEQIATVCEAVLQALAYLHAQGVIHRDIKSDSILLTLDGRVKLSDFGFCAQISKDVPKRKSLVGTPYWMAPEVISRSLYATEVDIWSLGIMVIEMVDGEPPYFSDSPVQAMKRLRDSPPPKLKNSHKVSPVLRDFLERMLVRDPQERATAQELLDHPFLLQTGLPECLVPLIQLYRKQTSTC

- residual activity ([1]; compound 10.0 µM): 88%
- residual activity (BRSK2 (human); compound 1.0 µM): 92%
- residual activity (BRSK2 (human); compound 10.0 µM): 86%
- residual activity (CAMKK2 (human); compound 1.0 µM): 96%
- residual activity (CAMKK2 (human); compound 10.0 µM): 108%
- residual activity (CLK2 (human); compound 1.0 µM): 127%
- residual activity (CSK (human); compound 1.0 µM): 78%
- residual activity (DAPK1 (human); compound 1.0 µM): 110%
- residual activity (DAPK1 (human); compound 10.0 µM): 113%
- residual activity (EPHA4 (human); compound 10.0 µM): 105%
- residual activity (EPHB1 (human); compound 10.0 µM): 100%
- residual activity (EPHB3 (human); compound 10.0 µM): 129%
- residual activity (EPHB4 (human); compound 1.0 µM): 106%
- residual activity (EPHB4 (human); compound 10.0 µM): 108%
- residual activity (GSK3B (human); compound 1.0 µM): 93%
- residual activity (GSK3B (human); compound 10.0 µM): 98%
- residual activity (HIPK1 (human); compound 1.0 µM): 98%
- residual activity (HIPK2 (human); compound 1.0 µM): 88%
- residual activity (HIPK2 (human); compound 10.0 µM): 97%
- residual activity (HIPK3 (human); compound 1.0 µM): 84%
- residual activity (HIPK3 (human); compound 10.0 µM): 89%
- residual activity (IGF1R (human); compound 1.0 µM): 94%
- residual activity (IGF1R (human); compound 10.0 µM): 88%
- residual activity (INSR (human); compound 1.0 µM): 89%
- residual activity (INSR (human); compound 10.0 µM): 93%
- residual activity (LCK (mouse); compound 1.0 µM): 98%
- residual activity (LCK (mouse); compound 10.0 µM): 110%
- residual activity (MAP3K1 (human); compound 10.0 µM): 107%
- residual activity (MAP3K5 (human); compound 1.0 µM): 87%
- residual activity (MAP3K5 (human); compound 10.0 µM): 87%
- residual activity (MAP3K7 TAB1 (human); compound 1.0 µM): 107%
- residual activity (MAP3K7 TAB1 (human); compound 10.0 µM): 105%
- residual activity (MAP3K9 (human); compound 1.0 µM): 82%
- residual activity (MAP3K9 (human); compound 10.0 µM): 88%
- residual activity (MAPK1 (human); compound 10.0 µM): 89%
- residual activity (MAPK11 (human); compound 1.0 µM): 95%
- residual activity (MAPK11 (human); compound 10.0 µM): 98%
- residual activity (MAPK13 (human); compound 1.0 µM): 92%
- residual activity (MAPK13 (human); compound 10.0 µM): 90%
- residual activity (MARK4 (human); compound 1.0 µM): 93%
- residual activity (MARK4 (human); compound 10.0 µM): 103%
- residual activity (PAK6 (human); compound 1.0 µM): 94%
- residual activity (PAK6 (human); compound 10.0 µM): 91%
- residual activity (PAK7 (human); compound 10.0 µM): 89%
- residual activity (PKN2 (human); compound 1.0 µM): 90%
- residual activity (PKN2 (human); compound 10.0 µM): 92%
- residual activity (PLK1 (human); compound 1.0 µM): 93%
- residual activity (PLK1 (human); compound 10.0 µM): 95%
- residual activity (PRKAA1 or PRKAA2 (rat); compound 1.0 µM): 96%
- residual activity (PRKAA1 or PRKAA2 (rat); compound 10.0 µM): 99%
- residual activity (PRKCZ (human); compound 10.0 µM): 96%
- residual activity (ROCK2 (rat); compound 10.0 µM): 81%
- residual activity (RPS6KA5 KD1 KD2 (human); compound 1.0 µM): 103%
- residual activity (RPS6KA5 KD1 KD2 (human); compound 10.0 µM): 110%
- residual activity (SRC (human); compound 10.0 µM): 113%
- residual activity (SYK (human); compound 1.0 µM): 92%
- residual activity (SYK (human); compound 10.0 µM): 104%
- residual activity (YES1 (human); compound 10.0 µM): 79%
Structure (SMILES): NS(=O)(=O)OC[C@@H]1C[C@@H](n2ccc3c(N[C@H]4CCc5ccccc54)ncnc32)C[C@@H]1O

- residual activity ([1]; compound 0.1 µM): 75%
- residual activity ([1]; compound 1.0 µM): 70%
- residual activity ([1]; compound 10.0 µM): 61%
- residual activity (BRSK2 (human); compound 0.1 µM): 86%
- residual activity (BRSK2 (human); compound 1.0 µM): 97%
- residual activity (BRSK2 (human); compound 10.0 µM): 90%
- residual activity (CAMKK2 (human); compound 0.1 µM): 92%
- residual activity (CAMKK2 (human); compound 1.0 µM): 83%
- residual activity (CAMKK2 (human); compound 10.0 µM): 44%
- residual activity (CLK2 (human); compound 1.0 µM): 60%
- residual activity (CLK2 (human); compound 10.0 µM): 18%
- residual activity (CSK (human); compound 0.1 µM): 97%
- residual activity (CSK (human); compound 1.0 µM): 85%
- residual activity (CSK (human); compound 10.0 µM): 97%
- residual activity (DAPK1 (human); compound 1.0 µM): 68%
- residual activity (DAPK1 (human); compound 10.0 µM): 25%
- residual activity (EPHA4 (human); compound 1.0 µM): 78%
- residual activity (EPHA4 (human); compound 10.0 µM): 76%
- residual activity (EPHB1 (human); compound 1.0 µM): 102%
- residual activity (EPHB1 (human); compound 10.0 µM): 88%
- residual activity (EPHB3 (human); compound 0.1 µM): 99%
- residual activity (EPHB3 (human); compound 1.0 µM): 99%
- residual activity (EPHB3 (human); compound 10.0 µM): 90%
- residual activity (EPHB4 (human); compound 1.0 µM): 96%
- residual activity (EPHB4 (human); compound 10.0 µM): 103%
- residual activity (GSK3B (human); compound 1.0 µM): 78%
- residual activity (GSK3B (human); compound 10.0 µM): 67%
- residual activity (HIPK1 (human); compound 1.0 µM): 104%
- residual activity (HIPK1 (human); compound 10.0 µM): 91%
- residual activity (HIPK2 (human); compound 1.0 µM): 86%
- residual activity (HIPK2 (human); compound 10.0 µM): 38%
- residual activity (HIPK3 (human); compound 0.1 µM): 88%
- residual activity (HIPK3 (human); compound 1.0 µM): 92%
- residual activity (HIPK3 (human); compound 10.0 µM): 73%
- residual activity (IGF1R (human); compound 0.1 µM): 92%
- residual activity (IGF1R (human); compound 1.0 µM): 96%
- residual activity (IGF1R (human); compound 10.0 µM): 25%
- residual activity (INSR (human); compound 0.1 µM): 127%
- residual activity (INSR (human); compound 1.0 µM): 101%
- residual activity (INSR (human); compound 10.0 µM): 100%
- residual activity (LCK (mouse); compound 0.1 µM): 88%
- residual activity (LCK (mouse); compound 1.0 µM): 106%
- residual activity (LCK (mouse); compound 10.0 µM): 58%
- residual activity (MAP3K1 (human); compound 1.0 µM): 92%
- residual activity (MAP3K1 (human); compound 10.0 µM): 45%
- residual activity (MAP3K5 (human); compound 1.0 µM): 98%
- residual activity (MAP3K5 (human); compound 10.0 µM): 100%
- residual activity (MAP3K7 TAB1 (human); compound 1.0 µM): 91%
- residual activity (MAP3K7 TAB1 (human); compound 10.0 µM): 86%
- residual activity (MAP3K9 (human); compound 1.0 µM): 92%
- residual activity (MAP3K9 (human); compound 10.0 µM): 40%
- residual activity (MAPK1 (human); compound 0.1 µM): 93%
- residual activity (MAPK1 (human); compound 1.0 µM): 103%
- residual activity (MAPK1 (human); compound 10.0 µM): 97%
- residual activity (MAPK11 (human); compound 0.1 µM): 102%
- residual activity (MAPK11 (human); compound 1.0 µM): 89%
- residual activity (MAPK11 (human); compound 10.0 µM): 90%
- residual activity (MAPK13 (human); compound 0.1 µM): 91%
- residual activity (MAPK13 (human); compound 1.0 µM): 78%
- residual activity (MAPK13 (human); compound 10.0 µM): 85%
- residual activity (MARK4 (human); compound 1.0 µM): 110%
- residual activity (MARK4 (human); compound 10.0 µM): 85%
- residual activity (PAK6 (human); compound 0.1 µM): 101%
- residual activity (PAK6 (human); compound 1.0 µM): 92%
- residual activity (PAK6 (human); compound 10.0 µM): 87%
- residual activity (PAK7 (human); compound 0.1 µM): 79%
- residual activity (PAK7 (human); compound 1.0 µM): 91%
- residual activity (PAK7 (human); compound 10.0 µM): 72%
- residual activity (PKN2 (human); compound 0.1 µM): 90%
- residual activity (PKN2 (human); compound 1.0 µM): 103%
- residual activity (PKN2 (human); compound 10.0 µM): 104%
- residual activity (PLK1 (human); compound 0.1 µM): 84%
- residual activity (PLK1 (human); compound 1.0 µM): 94%
- residual activity (PLK1 (human); compound 10.0 µM): 104%
- residual activity (PRKAA1 or PRKAA2 (rat); compound 0.1 µM): 83%
- residual activity (PRKAA1 or PRKAA2 (rat); compound 1.0 µM): 88%
- residual activity (PRKAA1 or PRKAA2 (rat); compound 10.0 µM): 60%
- residual activity (PRKCZ (human); compound 0.1 µM): 78%
- residual activity (PRKCZ (human); compound 1.0 µM): 105%
- residual activity (PRKCZ (human); compound 10.0 µM): 103%
- residual activity (ROCK2 (rat); compound 0.1 µM): 100%
- residual activity (ROCK2 (rat); compound 1.0 µM): 89%
- residual activity (ROCK2 (rat); compound 10.0 µM): 79%
- residual activity (RPS6KA5 KD1 KD2 (human); compound 0.1 µM): 94%
- residual activity (RPS6KA5 KD1 KD2 (human); compound 1.0 µM): 90%
- residual activity (RPS6KA5 KD1 KD2 (human); compound 10.0 µM): 68%
- residual activity (SRC (human); compound 0.1 µM): 85%
- residual activity (SRC (human); compound 1.0 µM): 93%
- residual activity (SRC (human); compound 10.0 µM): 121%
- residual activity (SYK (human); compound 0.1 µM): 109%
- residual activity (SYK (human); compound 1.0 µM): 93%
- residual activity (SYK (human); compound 10.0 µM): 67%
- residual activity (YES1 (human); compound 0.1 µM): 69%
- residual activity (YES1 (human); compound 1.0 µM): 82%
- residual activity (YES1 (human); compound 10.0 µM): 80%
Structure (SMILES): O=C(Nc1ccccc1-c1cn2c(CN3CCNCC3)csc2n1)c1cnc2ccccc2n1

From the kinase profiling compilation of Christmann-Franck et al. (2016)
